Measured values reported in ChEMBL document CHEMBL1201862, “PubChem BioAssay data set” (2004).
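96-well plates; 48 h exposure; 5 concentrations. Endpoints by linear interpolation between flanking doses. Not reached: highest tested concentration assigned. Abbreviation: GI50, concentration required for 50% inhibition of growth.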 Active and inactive are the calls of the source. Rule as the data show it: active = GI50 up to about 1.1 µM and inactive = higher.

What was measured:
Assay in all cases: DTP human tumour cell line panel, 48 h
DU-145 = system: DU-145
T47D = system: T47D
SR = system: SR
SK-OV-3 = system: SK-OV-3
LOX IMVI = system: LOX IMVI
BT-549 = system: BT-549
IGROV-1 = system: IGROV-1
UACC-62 = system: UACC-62
A498 = system: A498
HCT-15 = system: HCT-15
TK-10 = system: TK-10
SK-MEL-2 = system: SK-MEL-2
HOP-92 = system: HOP-92
SW-620 = system: SW-620
PC-3 = system: PC-3
UACC-257 = system: UACC-257
KM12 = system: KM12
CCRF-CEM = system: CCRF-CEM
SK-MEL-5 = system: SK-MEL-5
RXF 393 = system: RXF 393

Row | SMILES | GI50 (DU-145) | GI50 (T47D) | GI50 (SR) | GI50 (SK-OV-3) | GI50 (LOX IMVI) | GI50 (BT-549) | GI50 (IGROV-1) | GI50 (UACC-62) | GI50 (A498) | GI50 (HCT-15) [µM] | GI50 (TK-10) | GI50 (SK-MEL-2) | GI50 (HOP-92) | GI50 (SW-620) | GI50 (PC-3) | GI50 (UACC-257) | GI50 (KM12) | GI50 (CCRF-CEM) | GI50 (SK-MEL-5) | GI50 (RXF 393)
1 | COc1nc(C(Cl)(Cl)Cl)c(Cl)c(O)c1Cl | > 100 µM (inactive) | > 100 µM (inactive) | > 100 µM (inactive) | > 100 µM (inactive) | > 100 µM (inactive) | > 100 µM (inactive) | > 100 µM (inactive) | > 100 µM (inactive) | > 100 µM (inactive) | > 100 | > 100 µM (inactive) | > 100 µM (inactive) | > 100 µM (inactive) | > 100 µM (inactive) | > 100 µM (inactive) | > 100 µM (inactive) | > 100 µM (inactive) | > 100 µM (inactive) | > 100 µM (inactive) | 
2 | S=C(Nc1ccccn1)Nc1ccccc1Cl | > 100 µM (inactive) | 67.8 µM (inactive) | 73.6 µM (inactive) | > 66.1 µM (inactive) | > 100 µM (inactive) | 52.8 µM (inactive) | > 36.1 µM (inactive) | > 52.4 µM (inactive) | > 84.3 µM (inactive) | 59.8 | > 68.7 µM (inactive) | > 100 µM (inactive) |  | > 80.5 µM (inactive) | > 84.5 µM (inactive) | > 72.9 µM (inactive) | > 44.4 µM (inactive) | > 100 µM (inactive) | 42.4 µM (inactive) | 33.3 µM (inactive)
3 | O=C(NNC(=O)c1ccccc1O)c1ccco1 | > 100 µM (inactive) | > 100 µM (inactive) | 66.7 µM (inactive) | > 100 µM (inactive) | > 100 µM (inactive) | > 100 µM (inactive) | 64.9 µM (inactive) | > 100 µM (inactive) | > 100 µM (inactive) | 61.1 | > 100 µM (inactive) | > 100 µM (inactive) |  | 67.8 µM (inactive) | > 100 µM (inactive) | > 100 µM (inactive) | > 100 µM (inactive) | 31.3 µM (inactive) | > 100 µM (inactive) | > 100 µM (inactive)
4 | COc1ccc(OC)c(C[P+](c2ccccc2)(c2ccccc2)c2ccccc2)c1 | 3.27 µM (inactive) | 2.87 µM (inactive) | 0.601 µM (active) | 2.58 µM (inactive) | 0.968 µM (active) | 2.06 µM (inactive) | 0.971 µM (active) | 0.971 µM (active) | 4.36 µM (inactive) | 18.5 | 2.7 µM (inactive) |  | 0.792 µM (active) | 2.61 µM (inactive) | 1.57 µM (inactive) | 0.656 µM (active) | 1.11 µM (active) | 2.56 µM (inactive) | 0.991 µM (active) | 4.68 µM (inactive)
5 | COc1cc(O)c2c(=O)c(OC)c(-c3ccc4c(c3)OCO4)oc2c1 | > 100 µM (inactive) | > 100 µM (inactive) | > 100 µM (inactive) | 13.9 µM (inactive) | > 23.2 µM (inactive) | 4.04 µM (inactive) | > 52 µM (inactive) | 78.9 µM (inactive) | 38.5 µM (inactive) | > 100 | 36.7 µM (inactive) | 59.7 µM (inactive) |  | > 100 µM (inactive) | > 100 µM (inactive) | > 100 µM (inactive) | > 100 µM (inactive) | > 100 µM (inactive) | > 35.6 µM (inactive) | 11.2 µM (inactive)
6 | Ic1ccc2c(c1)N(c1ccccc1)c1cc([N-]c3ccc4nc5ccc(I)cc5[n+](-c5ccccc5)c4c3)ccc1N2 | > 100 µM (inactive) | 61.7 µM (inactive) | 32.6 µM (inactive) | > 100 µM (inactive) |  | > 100 µM (inactive) | 43.8 µM (inactive) | 69.3 µM (inactive) | > 100 µM (inactive) | > 100 | > 100 µM (inactive) | > 100 µM (inactive) | > 100 µM (inactive) | 51.9 µM (inactive) | 55.7 µM (inactive) | 31.3 µM (inactive) | 44.2 µM (inactive) | 15 µM (inactive) | 33.4 µM (inactive) | > 100 µM (inactive)
7 | CCOC(=O)C(NC(=O)c1cccc(Cl)c1)(N1CCN(c2cc3c(cc2F)c(=O)c(C(=O)O)cn3C2CC2)CC1)C(F)(F)F (stereo not drawn) | 25.4 µM (inactive) | 19.1 µM (inactive) | 6.61 µM (inactive) | 23.4 µM (inactive) |  | 18.9 µM (inactive) | 16.1 µM (inactive) | 15.3 µM (inactive) | 20 µM (inactive) |  |  | 14.7 µM (inactive) | 16.3 µM (inactive) | 12.2 µM (inactive) | 13.7 µM (inactive) |  | 11.5 µM (inactive) | 2.67 µM (inactive) | 12.9 µM (inactive) | 17 µM (inactive)
8 | CC(=O)NC(CSC1=C2NC(=O)\C=C/C=C\C=C/C(C)C(O)CC(=O)/C(C)=C\CC(O)/C=C\C(C)C(O)C(C)C=C(C)C(=O)c3c(O)c(C)cc(c3C1=O)C2=O)C(=O)O (stereo not drawn) | 61.8 µM (inactive) | 91 µM (inactive) | 33.5 µM (inactive) | > 100 µM (inactive) | 69.2 µM (inactive) | > 100 µM (inactive) | 43.1 µM (inactive) | 51.5 µM (inactive) | > 100 µM (inactive) | > 100 | > 100 µM (inactive) | 80.7 µM (inactive) | > 100 µM (inactive) | 45.7 µM (inactive) | > 100 µM (inactive) | 41.8 µM (inactive) | 33.7 µM (inactive) | 22.3 µM (inactive) | 39.3 µM (inactive) | 
9 | Cn1nc2ccc([N+](=O)[O-])cc2[n+]1[O-] | > 100 µM (inactive) | > 100 µM (inactive) | > 100 µM (inactive) | > 100 µM (inactive) |  | > 100 µM (inactive) | > 100 µM (inactive) | > 100 µM (inactive) | 87.9 µM (inactive) | > 100 | > 100 µM (inactive) | > 100 µM (inactive) |  |  | > 100 µM (inactive) | > 100 µM (inactive) | > 100 µM (inactive) | > 100 µM (inactive) | > 100 µM (inactive) | > 100 µM (inactive)
10 | CC(=O)Oc1ccc(/C=C/C(=O)OCCCOC(=O)/C=C/c2ccc(OC(C)=O)c(OC(C)=O)c2)cc1OC(C)=O | > 100 µM (inactive) | > 100 µM (inactive) | > 100 µM (inactive) | > 100 µM (inactive) | > 100 µM (inactive) | > 100 µM (inactive) | > 100 µM (inactive) | > 100 µM (inactive) | > 100 µM (inactive) | > 100 | > 100 µM (inactive) | > 100 µM (inactive) | > 100 µM (inactive) | > 100 µM (inactive) | > 100 µM (inactive) | > 100 µM (inactive) | > 100 µM (inactive) |  | > 100 µM (inactive) | > 100 µM (inactive)
11 | Clc1ccccc1-c1nc(-c2ccncc2)no1 [PIFEXOLE] | 87.9 µM (inactive) | 29.2 µM (inactive) | 18.5 µM (inactive) | > 100 µM (inactive) |  | 42.3 µM (inactive) | 71.3 µM (inactive) | 73.6 µM (inactive) | 37.6 µM (inactive) | 44.7 | 42.8 µM (inactive) | > 100 µM (inactive) | > 100 µM (inactive) | 52.7 µM (inactive) | 78 µM (inactive) | 37.8 µM (inactive) | > 100 µM (inactive) |  | 22.9 µM (inactive) | 29.3 µM (inactive)
